From the CheMixHub ionic liquid set
± gives the uncertainty stated by the source.

Test: xn = mol fraction of the nth substance listed

O=S(=O)([N-]S(=O)(=O)C(F)(F)F)C(F)(F)F.[Li+] + CC[n+]1ccn(C)c1.O=S(=O)([O-])C(F)(F)F + O
Conditions	electrical conductivity [S/m]	viscosity [mPa·s]
283 K, 101 kPa, x1 = 0.2649, x2 = 0.2649	0.36 ± 0.01	96.6 ± 2.2
283 K, 101 kPa, x1 = 0.4189, x2 = 0.2649	0.056 ± 0.001	–
283 K, 101 kPa, x1 = 0.5195, x2 = 0.3509	0.014 ± 0.001	–
293 K, 101 kPa, x1 = 0.2649, x2 = 0.2649	0.54 ± 0.01	60.2 ± 1.4
293 K, 101 kPa, x1 = 0.4189, x2 = 0.2649	0.1 ± 0.01	410 ± 14
293 K, 101 kPa, x1 = 0.5195, x2 = 0.3509	0.03 ± 0.001	–
293.15 K, 100 kPa, x1 = 0.2745, x2 = 0.3509	–	69.3 ± 7
293.15 K, 100 kPa, x1 = 0.3106, x2 = 0.3509	–	87 ± 8.9
293.15 K, 100 kPa, x1 = 0.3509, x2 = 0.3509	–	129 ± 13
293.15 K, 100 kPa, x1 = 0.3868, x2 = 0.3509	–	190 ± 21
293.15 K, 100 kPa, x1 = 0.4189, x2 = 0.3509	–	292 ± 33
293.15 K, 100 kPa, x1 = 0.4478, x2 = 0.3509	–	428 ± 51
293.15 K, 100 kPa, x1 = 0.474, x2 = 0.3509	–	611 ± 77
293.15 K, 100 kPa, x1 = 0.4978, x2 = 0.3509	–	880 ± 120
293.15 K, 100 kPa, x1 = 0.5195, x2 = 0.3509	–	1587 ± 230
298.1 K, 101 kPa, x1 = 0.2649, x2 = 0.2649	0.65 ± 0.01	48.9 ± 1.2
298.1 K, 101 kPa, x1 = 0.4189, x2 = 0.2649	0.14 ± 0.01	302 ± 9
298.1 K, 101 kPa, x1 = 0.5195, x2 = 0.3509	0.042 ± 0.001	1125 ± 51
298.15 K, 100 kPa, x1 = 0.2745, x2 = 0.3509	–	55 ± 5.5
298.15 K, 100 kPa, x1 = 0.3106, x2 = 0.3509	–	73.5 ± 7.4
298.15 K, 100 kPa, x1 = 0.3509, x2 = 0.3509	–	102 ± 11
298.15 K, 100 kPa, x1 = 0.3868, x2 = 0.3509	–	147 ± 16
298.15 K, 100 kPa, x1 = 0.4189, x2 = 0.3509	–	219 ± 24
298.15 K, 100 kPa, x1 = 0.4478, x2 = 0.3509	–	316 ± 36
298.15 K, 100 kPa, x1 = 0.474, x2 = 0.3509	–	439 ± 53
298.15 K, 100 kPa, x1 = 0.4978, x2 = 0.3509	–	618 ± 79
298.15 K, 100 kPa, x1 = 0.5195, x2 = 0.3509	–	1082 ± 150
303 K, 101 kPa, x1 = 0.2649, x2 = 0.2649	0.77 ± 0.02	40.2 ± 1
303 K, 101 kPa, x1 = 0.4189, x2 = 0.2649	0.17 ± 0.01	227 ± 6
303 K, 101 kPa, x1 = 0.5195, x2 = 0.3509	0.057 ± 0.001	789 ± 33
303.15 K, 100 kPa, x1 = 0.2745, x2 = 0.3509	–	44.4 ± 4.5
303.15 K, 100 kPa, x1 = 0.3106, x2 = 0.3509	–	59.3 ± 6
303.15 K, 100 kPa, x1 = 0.3509, x2 = 0.3509	–	81.4 ± 8.3
303.15 K, 100 kPa, x1 = 0.3868, x2 = 0.3509	–	115 ± 12
303.15 K, 100 kPa, x1 = 0.4189, x2 = 0.3509	–	166 ± 18
303.15 K, 100 kPa, x1 = 0.4478, x2 = 0.3509	–	238 ± 27
303.15 K, 100 kPa, x1 = 0.474, x2 = 0.3509	–	326 ± 38
303.15 K, 100 kPa, x1 = 0.4978, x2 = 0.3509	–	452 ± 55
303.15 K, 100 kPa, x1 = 0.5195, x2 = 0.3509	–	770 ± 100
313 K, 101 kPa, x1 = 0.2649, x2 = 0.2649	1.05 ± 0.02	28 ± 0.7
313 K, 101 kPa, x1 = 0.4189, x2 = 0.2649	0.27 ± 0.01	138 ± 3
313 K, 101 kPa, x1 = 0.5195, x2 = 0.3509	0.1 ± 0.01	418 ± 15
313.15 K, 100 kPa, x1 = 0.2745, x2 = 0.3509	–	30.6 ± 3.1
313.15 K, 100 kPa, x1 = 0.3106, x2 = 0.3509	–	40.1 ± 4
313.15 K, 100 kPa, x1 = 0.3509, x2 = 0.3509	–	54.2 ± 5.4
313.15 K, 100 kPa, x1 = 0.3868, x2 = 0.3509	–	75.3 ± 7.6
313.15 K, 100 kPa, x1 = 0.4189, x2 = 0.3509	–	104 ± 11
313.15 K, 100 kPa, x1 = 0.4478, x2 = 0.3509	–	144 ± 15
313.15 K, 100 kPa, x1 = 0.474, x2 = 0.3509	–	191 ± 21
313.15 K, 100 kPa, x1 = 0.4978, x2 = 0.3509	–	255 ± 29
313.15 K, 100 kPa, x1 = 0.5195, x2 = 0.3509	–	413 ± 50
323 K, 101 kPa, x1 = 0.2649, x2 = 0.2649	1.38 ± 0.03	20.4 ± 0.5
323 K, 101 kPa, x1 = 0.4189, x2 = 0.2649	0.4 ± 0.01	87.4 ± 1.9
323 K, 101 kPa, x1 = 0.5195, x2 = 0.3509	0.16 ± 0.01	243 ± 7
323.15 K, 100 kPa, x1 = 0.2745, x2 = 0.3509	–	22.1 ± 2.2
323.15 K, 100 kPa, x1 = 0.3106, x2 = 0.3509	–	28.7 ± 2.9
323.15 K, 100 kPa, x1 = 0.3509, x2 = 0.3509	–	37.6 ± 3.8
323.15 K, 100 kPa, x1 = 0.3868, x2 = 0.3509	–	49.3 ± 5
323.15 K, 100 kPa, x1 = 0.4189, x2 = 0.3509	–	63.9 ± 6.5
323.15 K, 100 kPa, x1 = 0.4478, x2 = 0.3509	–	92.9 ± 9.5
323.15 K, 100 kPa, x1 = 0.474, x2 = 0.3509	–	120 ± 13
323.15 K, 100 kPa, x1 = 0.4978, x2 = 0.3509	–	155 ± 17
323.15 K, 100 kPa, x1 = 0.5195, x2 = 0.3509	–	239 ± 27
333 K, 101 kPa, x1 = 0.2649, x2 = 0.2649	1.76 ± 0.04	15.3 ± 0.5
333 K, 101 kPa, x1 = 0.4189, x2 = 0.2649	0.56 ± 0.01	58 ± 1.2
333 K, 101 kPa, x1 = 0.5195, x2 = 0.3509	0.24 ± 0.01	149 ± 4
333.15 K, 100 kPa, x1 = 0.2745, x2 = 0.3509	–	16.5 ± 1.7
333.15 K, 100 kPa, x1 = 0.3106, x2 = 0.3509	–	21.2 ± 2.1
333.15 K, 100 kPa, x1 = 0.3509, x2 = 0.3509	–	27.2 ± 2.7
333.15 K, 100 kPa, x1 = 0.3868, x2 = 0.3509	–	34.1 ± 3.4
333.15 K, 100 kPa, x1 = 0.4189, x2 = 0.3509	–	44 ± 4.4
333.15 K, 100 kPa, x1 = 0.4478, x2 = 0.3509	–	56.7 ± 5.7
333.15 K, 100 kPa, x1 = 0.474, x2 = 0.3509	–	80 ± 8.1
333.15 K, 100 kPa, x1 = 0.4978, x2 = 0.3509	–	102 ± 10
333.15 K, 100 kPa, x1 = 0.5195, x2 = 0.3509	–	150 ± 16
343.15 K, 100 kPa, x1 = 0.2745, x2 = 0.3509	–	12.7 ± 1.3
343.15 K, 100 kPa, x1 = 0.3106, x2 = 0.3509	–	16.1 ± 1.6
343.15 K, 100 kPa, x1 = 0.3509, x2 = 0.3509	–	19.6 ± 2
343.15 K, 100 kPa, x1 = 0.3868, x2 = 0.3509	–	25.1 ± 2.5
343.15 K, 100 kPa, x1 = 0.4189, x2 = 0.3509	–	31.6 ± 3.2
343.15 K, 100 kPa, x1 = 0.4478, x2 = 0.3509	–	39.9 ± 4
343.15 K, 100 kPa, x1 = 0.474, x2 = 0.3509	–	51.1 ± 5.1
343.15 K, 100 kPa, x1 = 0.4978, x2 = 0.3509	–	64.1 ± 6.5
343.15 K, 100 kPa, x1 = 0.5195, x2 = 0.3509	–	91.5 ± 9.4
353.15 K, 100 kPa, x1 = 0.2745, x2 = 0.3509	–	10 ± 1
353.15 K, 100 kPa, x1 = 0.3106, x2 = 0.3509	–	12.6 ± 1.3
353.15 K, 100 kPa, x1 = 0.3509, x2 = 0.3509	–	15.1 ± 1.5
353.15 K, 100 kPa, x1 = 0.3868, x2 = 0.3509	–	19 ± 1.9
353.15 K, 100 kPa, x1 = 0.4189, x2 = 0.3509	–	23.6 ± 2.4
353.15 K, 100 kPa, x1 = 0.4478, x2 = 0.3509	–	29.2 ± 2.9
353.15 K, 100 kPa, x1 = 0.474, x2 = 0.3509	–	36.7 ± 3.7
353.15 K, 100 kPa, x1 = 0.4978, x2 = 0.3509	–	45.9 ± 4.6
353.15 K, 100 kPa, x1 = 0.5195, x2 = 0.3509	–	58 ± 5.8
363.15 K, 100 kPa, x1 = 0.2745, x2 = 0.3509	–	7.98 ± 0.8
363.15 K, 100 kPa, x1 = 0.3106, x2 = 0.3509	–	10 ± 1
363.15 K, 100 kPa, x1 = 0.3509, x2 = 0.3509	–	11.9 ± 1.2
363.15 K, 100 kPa, x1 = 0.3868, x2 = 0.3509	–	14.8 ± 1.5
363.15 K, 100 kPa, x1 = 0.4189, x2 = 0.3509	–	18.1 ± 1.8
363.15 K, 100 kPa, x1 = 0.4478, x2 = 0.3509	–	22.1 ± 2.2
363.15 K, 100 kPa, x1 = 0.474, x2 = 0.3509	–	27.3 ± 2.7
363.15 K, 100 kPa, x1 = 0.4978, x2 = 0.3509	–	33.8 ± 3.4
363.15 K, 100 kPa, x1 = 0.5195, x2 = 0.3509	–	41.6 ± 4.2

CCC(=O)[O-].C[NH2+]Cc1ccccc1 + CN(C)C=O
viscosity [mPa·s], 101 kPa
Conditions	293.15 K	298.15 K	303.15 K	308.15 K	313.15 K	318.15 K	323.15 K	328.15 K
x1 = 0.006359	0.956 ± 0.035	0.914 ± 0.035	0.877 ± 0.034	0.845 ± 0.034	0.816 ± 0.033	0.79 ± 0.033	0.766 ± 0.032	0.745 ± 0.032
x1 = 0.01185	0.969 ± 0.036	0.926 ± 0.035	0.888 ± 0.034	0.854 ± 0.034	0.824 ± 0.033	0.797 ± 0.033	0.772 ± 0.032	0.75 ± 0.032
x1 = 0.01701	0.989 ± 0.036	0.944 ± 0.035	0.902 ± 0.034	0.866 ± 0.034	0.835 ± 0.033	0.807 ± 0.033	0.781 ± 0.033	0.758 ± 0.032
x1 = 0.02175	1.007 ± 0.036	0.958 ± 0.035	0.915 ± 0.035	0.878 ± 0.034	0.845 ± 0.034	0.815 ± 0.033	0.788 ± 0.033	0.764 ± 0.032
x1 = 0.02663	1.016 ± 0.036	0.966 ± 0.036	0.922 ± 0.035	0.884 ± 0.034	0.85 ± 0.034	0.819 ± 0.033	0.792 ± 0.033	0.768 ± 0.032
x1 = 0.03255	1.045 ± 0.037	0.991 ± 0.036	0.944 ± 0.035	0.903 ± 0.035	0.866 ± 0.034	0.834 ± 0.033	0.805 ± 0.033	0.779 ± 0.033
x1 = 0.0357	1.057 ± 0.037	1.001 ± 0.036	0.953 ± 0.035	0.911 ± 0.035	0.874 ± 0.034	0.841 ± 0.034	0.812 ± 0.033	0.786 ± 0.033
x1 = 0.04024	1.072 ± 0.037	1.015 ± 0.036	0.965 ± 0.036	0.921 ± 0.035	0.882 ± 0.034	0.848 ± 0.034	0.818 ± 0.033	0.791 ± 0.033
